Results reported in patent US20010005714A1, “AMPHIPATHIC MOLECULES AS CHOLESTEROL AND OTHER LIPID UPTAKE INHIBITORS” (priority 1996, published 2001).

B1: rabbit apo A-1: rabbit apolipoprotein A-1, literature values for comparison (protein, UniProt P09809 25-266, looked up)
Apolipoprotein A-I: DEPRSSWDKIKDFATVYVDTVKDSGREYVAQFEASAFGKQLNLKLLDNWDSLSSTVSKLQEQLGPVTQEFWDNLEKETEGLREEMNKDLQEVRQKVQPYLDEFQKKWQEEVERYRQKVEPLGAELRESARQKLTELQEKLSPLAEELRDSARTHVDTLRTKLAPYSNELQQRLAARLESIKEGGGASLAEYQAKAREHLSVLSEKARPALEDLRQGLLPVLESFKASVQNVLDEATKKLNTQ
modifications: Apolipoprotein A-I
notes: rabbit apolipoprotein A-1, literature values for comparison
B2: Apo C-2: natural (human) apoprotein C-II (protein, UniProt P02655 29-101, looked up)
Apolipoprotein C-II: DEMPSPTFLTQVKESLSSYWESAKTAAQNLYEKTYLPAVDEKLRDLYSKSTAAMSTYTGIFTDQVLSVLKGEE
modifications: Apolipoprotein C-II
B3: Apo A-4: natural (human) apoprotein A-IV (protein, UniProt P06727 21-396, looked up)
Apolipoprotein A-IV: EVSADQVATVMWDYFSQLSNNAKEAVEHLQKSELTQQLNALFQDKLGEVNTYAGDLQKKLVPFATELHERLAKDSEKLKEEIGKELEELRARLLPHANEVSQKIGDNLRELQQRLEPYADQLRTQVSTQAEQLRRQLTPYAQRMERVLRENADSLQASLRPHADELKAKIDQNVEELKGRLTPYADEFKVKIDQTVEELRRSLAPYAQDTQEKLNHQLEGLTFQMKKNAEELKARISASAEELRQRLAPLAEDVRGNLRGNTEGLQKSLAELGGHLDQQVEEFRRRVEPYGENFNKALVQQMEQLRQKLGPHAGDVEGHLSFLEKDLRDKVNSFFSTFKEKESQDKTLSLPELEQQQEQQQEQQQEQVQMLAPLES

Experiments:
normal human BBMV = assay: [14C]Cholesterol uptake from egg PC vesicles by normal human duodenal BBMV; type: biochemical; settings: human duodenal BBMV
Experimental: Biopsy samples from human duodenum, 20 to 30 mg of wet tissue each, were suspended in 200 μl buffer (12 mM Tris HCl pH 7.2, 300 mM mannitol, 5 mM EGTA, 1 mM phenylmethylsulfonyl fluoride), frozen in liquid nitrogen and stored at −80° C. prior to use. BBMV were prepared by Mg^+2 precipitation (Hauser et al, Biochim. Biophys. Acta 602 567-577 (1980)) as described in detail by Booth et al (Lancet 1 1066-1069 (1985)). Proteinase K treatment of the BBMV was carried out according to Thurnhofer and Hauser (Biochim. Biophys. Acta 1024 249-262 (1990)). […] Small unilamellar phesrholipid vesicles were prepared by tip sonication (Schulthess, Biochemistry 33 4500-4508 (1994)).
(I) Egg PC small unilamellar vesicles containing […] (^14C] cholesterol and BBMV both dispersed in 10 mM Tris-HCl pH 7.2, 0.15 M NaCl, 5 mM EDTA were incubated at room temperature. After timed intervals phospholipid vesicles and BBMV were separated by centrifugation at 115000 g for 2 min in a Beckman airfuge. The radioactivities present in pellet and supernatant were determined by counting aliquots in a Beckman LS 7500 liquid scintillatior counter. Fusion of egg PC small unilamellar vesicles and BBMV as a possible mechanism of cholesterol uptake was ruled out as discussed in detail in previous studies (Thurnhofer and Hauser, Biochemistry 29 2142-2148 (1990); Compassi, Biochemistry 34 16473-16482 (1995) and Schulthess, J. Lipid. Res. 37 2405-2419 (1996)).
The experimental data were computer-fitted using the following equation valid for single-exponential exchange reactions: X=X∞+[XO−X∞]e^-k1^[(a+b)/a]t, where XO, X and X∞represent the fractions of the labelled lipid in the donor at times 0, t and at equilibrium, respectively. K1 is the pseudo-first-order rate constant of the reaction and a and b are the lipid pools of acceptor and donor, respectively (McKay, Nature 142 997-998 (1938) and Mutsch et al, Biochemistry 25 2134-2140 (1986).
Kinetic measurements were also carried out in the presence of inhibitors; synthetic peptides or apolipoproteins were added to the […] of donor and acceptor vesicles. Cholesterol uptake by native and proteinase K treated BBMV was determined in the presence of increasing concentrations of Ac-18A-NH2, the difference between cholesterol uptake by native and proteinase K treated BBMV is referred as protein-mediated cholesterol uptake in FIG. 6. The IC50 values were determined according to Methods Enzymol. 37 3-22 (1975).

BBMVs = assay: Inhibition of cholesteryl oleate uptake by BBMVs by peptides of varying lengths (Example 8); type: biochemical; settings: for Inhibition of Cholesteryloleate Uptake In. %: donor 0.05 mg total lipid/ml, acceptor 5 mg protein/ml, 23° C.
Experimental: going from one peptide to the other (top→bottom) 3 amino acids were removed from the N-terminus. The inhibitory effect of the four peptides listed above were compared at 120 μg peptide/ml. The lipid uptake by BBMVs was measured in the presence of 120 μg peptide/ml each as described below.
Donor and acceptor particles dispersed in Tris/NaCl buffer were centrifuged in a Beckman airfuge at 115000 g is for 2 min at 4° C. The dispersion of the acceptor yielded a pellet which was resuspended in Tris/NaCl buffer. Varying amounts of inhibitor dissolved in the same buffer were added to the acceptor dispersion and at time zero the dispersiorn of acceptor with or without inhibitor was mixed with the top 80% of the supernatant obtained by centrifugation of the donor dispersion. The final concentration of the donor was 0.05 mg total lipid/ml and that of the acceptor was 5 mg protein/ml. The resulting dispersion was incubated at 23° C. and after timed intervals the sterol uptake was stopped by dilution of the incubation medium with 2 volumes of Tris/NaCl buffer. BBMV were separated from the donor by centrifugation in the Beckman airfuge at 115000 g for 2 min at 4° C. The radioactivities in the supernatant containing the donor and in the pellet containing the BBMV (acceptor) were determined in a Beckman LS 7500 scintillation counter.

[1] = system: brush border membrane vesicles (BBMV); assay: IC50 of cholesteryl oleate uptake at the brush border membrane (Example 6); type: biochemical, rabbit; settings: donor 0.1 mg total lipid/ml, acceptor 2 mg protein/ml; 20 min at 25° C.
Experimental: An appropriate amount of inhibitor dissolved in 84.5 μl buffer (0.05 M Tris pH 7.4, 0.15 M NaCl) is mixed in an Eppendorf tube at time zero with 5 μl of a dispersion of donor and 10.5 μl of a dispersion of acceptor (i.e. brush border membrane vesicles (BBMV)) in the same buffer. The final concentration of the donor vesicles was 0.1 mg total lipid/ml, that of the acceptor was 2 mg protein/ml. The resulting mixture was incubated for 20 min at 25° C., and the reaction was stopped by adding 60 μl of the incubation medium to 120 μl ice-cold bufferin an airfuge tube. The diluted dispersion was immediately centrifuiaed in the airfuge at […] for 2 min. at 4° C. to separate donor vesicles from BBMV. Two 60 μl aliquots of the donor (=supernatant) were counted in a Beckman LS-7500 liquid scintillating counter to determine the radioactivity remaining in tbe donor.
Small unilamellar egg phosphatidycholine (PC) vesicles containing 1 mol % of cholesterol oleate and a trace amount of ^3H-cholesterol oleyl ether were made by dissolving the appropriate amounts of the lipids in CHCl3/CH3OH, (2:1, by vol.), taking the solution to dryness on a rotary evaporator and drying the residue in vacuo. The dried lipid film was dispersed in the appropriate volume of buffer by hand-shaking. The lipid dispersion was subjected to tip sonication as described in Brunner et al, J. Biol. Chem. 253 7538-7546 (1978). The resulting donor dispersion in buffer was centrifuged in the airfuge at 100000 g for 2 min at […]. Only the top 80% of the donor dispersion after centrifugation was used in the lipid uptake experiment.
BBMV were prepared from frozen rabbit small intestine according to Hauser et al (Biochim. Biophys. Acta 602 567-577 (1980)). Prior to use in the uptake experiment determining IC50 values the BBMV were washed to remove any free protein liberated from the BBM. To this end the BBMV dispersion was diluted with buffer 1:1 in an airfuge tube, and the diluted dispersion was centrifuged in the airfuga at 100000 g for 2 min at […]. The supernatant was is carefully decanted, the pellet was resuspended in buffer to the original volume of the BBMV dispersion, and the dispersion was homogenized. […]

rabbit BBMV = assay: Dose response of cholesteryl oleate uptake from egg PC SUVs by rabbit BBMV (FIG. 4B); type: biochemical; settings: donor 0.05 mg/ml total lipid, acceptor 1.7 mg protein/ml, 20 min at 25° C., curve fits of FIG. 4B
Experimental: Small unilamellar vesicles of egg phosphatidylcholine containing 1 mol % cholesteryl oleate and a trace amount of (1,2-^3H2 (N)]-cholesteryl oleyl ether (37 Ci/mmol, from Amersham, UK) as the donor were made as described in Example 1 and BBMVs as the acceptor were prepared from rabbit small intestine (see Example 1). Donor and acceptor both dispersed in Tris/NaCl buffer (0.05 M Tris HCl pH 7.4, 0.15 M NaCl, 0.02% NaN3) and a solution of human apo A-1 or sheep HDL in the same buffer were mixed at time zero (total volume: 0.1 ml) so that the final concentrations of donor and acceptor were 0.05 mg/ml total lipid and 1.7 mg protein/ml, respectively. After incubation of the suspension of donor and acceptor in the presence of inhibitor for 20 min. at 25° C., the reaction was stopped by dilution with 2 vol. of Tris/NaCl buffer. Donor and acceptor were separated by centrifugation in the airfuge at 115,000 g for 2 min. at […]., and the radioactivities in the supernatant containing donor vesicles and in the pellet containing BBMVs were determined in a BECKMAN™ LS 7500 scintillation counter. […]
Experimental conditions were as described for FIG. 4A. The cholesterol absorption activity of BBMVs measured in the absence of inhibition was taken as 100% and the loss in activity observed in the presence of inhibitor is expressed as %. […]

[2] = taken from Chapman (1986), for comparison; cited from earlier work

| Molecule | IC50 [1] [µM] | IC50 (μg/mL) of cholesteryl oleate uptake at the brush border membrane [1] [µg/mL] | further results |
| --- | --- | --- | --- |
| Ac-Asp-Trp-Leu-Alα—Lys-Asp-Tyr-Phe-Lys-Lys-Alα —Leu-Val-Glu-Glu-Phe-Alα—Lys-NH2 [scrambled Ac-18A-NH2, reference compound] | – | – | inhibition of protein-mediated cholesterol uptake (in words) (normal human BBMV): inactive |
| Ac-Lys-Alα-Phe-Tyr-Asp-Lys-Val-Alα-Glu-Lys-Leu-Lys-Glu-Alα α-Phe-NH2 (Ac-KAFYDKVAEKLKEAF-NH2) [Ac-15A-NH2] | – | – | inhibitory effect on cholesteryl oleate uptake (in words, footnote) (BBMVs; 120 μg peptide/ml): Useful inhibitory effect is seen with Peptides Nos. 1 and 2.; Inhibition of Cholesteryloleate Uptake In. % (BBMVs; 120 μg peptide/ml): 85%; cholesteryl oleate uptake inhibition activity relative to Ac-18A-NH2 (BBMVs; brush border membrane vesicle model): 85% |
| Apo C-1: natural (human) apoprotein C-I (TPDVSSALDKLKEFGNTLEDKARELISRIKQSELSAKMREWFSETFQKVKEKLKIDS; Apolipoprotein C-I; UniProt P02654 27-83, looked up) | 1.8 ± 0.4 | 12 ± 2 | – |
| Apo C-31: natural (human) apoprotein C-III1 | 0.6 ± 0.1 | 4.8 ± 0.8 | – |
| Apo C-32: natural (human) apoprotein C-III2 | 0.5 ± 0.2 | 4.2 ± 0.2 | – |
| Apo E: natural (human) apoprotein E | 2.9 ± 0.2 | 95 ± 7 | – |
| CH3CO—VAEKLKEAF—NH2 (Ac-VAEKLKEAF-NH2) [Ac-9A-NH2] | – | – | Inhibition of Cholesteryloleate Uptake In. % (BBMVs; 120 μg peptide/ml): 0% |
| CH3CO—YDKVAEKLKEAF—NH2 (Ac-YDKVAEKLKEAF-NH2) [Ac-12A-NH2] | – | – | Inhibition of Cholesteryloleate Uptake In. % (BBMVs; 120 μg peptide/ml): 20% |
| apo A-II: human apolipoprotein A-2 | 3.8 ± 0.3 | 66 ± 5 | IC-50 (rabbit BBMV): 66 µg/mL |
| B1 | – | – | isoelectric point [2]: 5.50 |
| B2 | 2.1 ± 0.1 | 19 ± 1 | – |
| B3 | 0.7 ± 0.1 | 32 ± 4 | – |
